The target in assay [1] is T1, HMG-CoA reductase (Rattus norvegicus, UniProt P51639).
T1 construct: The rats liver cells microsomes were prepared into HMG-CoA reductase solution; from tissue; host or cells: rat liver cell microsomes
T1 sequence (P51639 1-887): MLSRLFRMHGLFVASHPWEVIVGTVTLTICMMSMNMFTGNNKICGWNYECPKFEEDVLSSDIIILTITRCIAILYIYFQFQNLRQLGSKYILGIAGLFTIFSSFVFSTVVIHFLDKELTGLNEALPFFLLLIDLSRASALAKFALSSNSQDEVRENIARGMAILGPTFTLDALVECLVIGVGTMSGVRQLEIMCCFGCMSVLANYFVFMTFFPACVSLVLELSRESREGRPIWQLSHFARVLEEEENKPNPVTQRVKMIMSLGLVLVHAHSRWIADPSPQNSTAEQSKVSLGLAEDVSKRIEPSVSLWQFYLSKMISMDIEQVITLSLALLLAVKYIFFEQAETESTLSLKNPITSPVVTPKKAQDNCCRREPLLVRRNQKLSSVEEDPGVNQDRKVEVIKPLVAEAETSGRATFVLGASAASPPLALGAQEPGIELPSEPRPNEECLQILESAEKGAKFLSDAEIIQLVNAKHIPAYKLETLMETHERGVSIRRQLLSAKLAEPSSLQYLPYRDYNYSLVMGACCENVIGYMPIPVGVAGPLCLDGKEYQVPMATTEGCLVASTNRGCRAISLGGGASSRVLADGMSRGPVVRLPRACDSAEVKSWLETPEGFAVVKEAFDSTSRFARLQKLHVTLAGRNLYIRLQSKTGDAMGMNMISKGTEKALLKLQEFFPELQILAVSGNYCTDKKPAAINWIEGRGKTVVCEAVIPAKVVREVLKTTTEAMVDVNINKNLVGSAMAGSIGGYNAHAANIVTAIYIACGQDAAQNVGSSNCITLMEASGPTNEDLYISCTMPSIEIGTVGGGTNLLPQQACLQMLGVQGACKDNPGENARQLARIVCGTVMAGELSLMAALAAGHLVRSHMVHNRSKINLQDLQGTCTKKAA
Briefly: Inhibition of HMG-CoA reductase activity (rat liver cell microsomes). The format is biochemical, rats. As to the method: Test the effects of various FTZEC conbination in vitro experiment on inhibiting HMGCoA reductase activity and calculate the IC50 of the composition of extracts from plants on inhibition of HMGCoA reductase and compare with pravastatin.
The rats liver cells microsomes were prepared into HMG-CoA reductase solution. The activities of the HMG-CoA reductase were determined by literature method. The enzyme activity in each group was respectively determined to calculate the IC50 (μg/ml) of FTZEC on HMG-CoA reductase activity.

The test system of assay [2] is Dietary hyperlipidemia New-Zealand female rabbits. Nature of the assay: Lipid metabolism of hyperlipidemia New-Zealand female rabbit model. The format is in vivo. To be noted: hyperlipidemia unsexed female rabbits, dose 3 mg/kg, gavage, 12 weeks; for HDL-C: model 0.871 ± 0.30; for TG: model 3.98 ± 0.79; for LDL-C: model 11.63 ± 2.30; for TC: model 33.92 ± 3.49; for Ox-LDL: plasma ELISA, model 1.63 ± 0.30. From the text:
Purebred New Zealand female rabbits were unsexed and fed with 0.5% cholesterol diet, and intravenously injected with bovine serum albumin to establish the model. The experimental animals were 49 New Zealand Angora purebred female rabbits, 1.8-2.2 kg, 3-4 months old which were provided by Guangdong Province Experimental Animal Center. […] In the sham-operated group, the sham operation was confirmed (cutting a small piece of fat tissues around the ovary), without removing the ovaries. The rabbits were given ordinary commercial feed (120-150 g/d) after surgery. […] In the compound Fufang tiaozhi FTZ group (equal to five times of clinical adult daily dose) and other administration groups, the rabbits were administrated with drugs by gavage. The control group and the model group were fed and administrated by gavage with same volume of normal saline. The body weights were examined at 12 weeks of the experiment. 2 ml blood was taken by the ear artery for blood lipid measurement. The rabbits were fasted for 16 h before each blood sampling. […] The total cholesterol, triglyceride, HDLC and LDLC were detected by automatic biochemical analyzer and the steps were carried out according to the kit instructions. The OX-LDL in plasma was measured by ELISA, according to kit instructions.

Assay [3] concerns hypercholesterolemic patients. Nature of the assay: Clinical validation in hyperlipemia patients: blood lipids and efficacy rate. It counts as in vivo, human. The note with it: patients n = 30, one tablet twice a day, 2 months. As to the method:
60 cases with hyperlipemia treated by FTZEC were analyzed, using the tablets obtained in Experiment 1. The experiment was confirmed according to Principles for Clinical Study of New Chinese Medicines in hyperlipemia, Ministry of Health of the People's Republic of China. 60 cases were in-patients or out-patients with hyperlipidemia diagnosed according to diagnostic criteria (1985), of which 40 cases were outpatients and 20 cases were in-patients; the patients were randomly divided into two groups, the treatment group and the control group. […] All patients accepted hyperlipidemia education, diet control, and regular exercise. […] 5.2 Efficiency standard of blood lipid Clinical control: the experimental examination returned to normal. Marked effective: the blood lipid detection achieved any one of the following indexes: […] Effective: the blood lipid detection achieved any one of the following indexes: […] Note: when determine the efficacy of the complicated hyperlipidemia, if the two indicators were not consistent, the lower efficacy was determined as the final result.

Assay [4] deals with L-O2 Lipoprotein Lipase of Liver Cells (LPL). Nature of the assay: LPL activity in L-O2 hepatocytes (colorimetric kit). It counts as cell-based, human. To be noted: 50.0 μg/ml, normal 12.63 ± 0.67. As to the method:
The L-O2 human normal liver cells were cultured in routine way, various concentrations of FTZCE were respectively added after cells fusion, continuously cultured the cells for a certain time followed by collecting cells to prepare cell homogenates. Using LPL/HL detection kit (Nanjing Jiancheng Biotechnology Research Institute), the LPL/HL activity was detected by colorimetric method to research the effects of various composition of extracts from plants conbination on LPL activity and compare the enzyme activity of hepatocyte LPL/HL under the action of different concentrations of FTZEC. The gene expressions of hepatocyte LPL/HL were determined by RT-PCR method to observe the affects of FTZEC on the hepatocyte LPL/HL gene expression.

Assay [5] relates to Dietary hyperlipidemia rats. Nature of the assay: Blood lipid of dietary hyperlipemia model in rats. The format is in vivo, SD rats. To be noted: serum, dose 3 mg/kg, 8 weeks; for HDL-C: high lipid control 0.71 ± 0.30; for LDL-C: high lipid control 1.43 ± 0.30; for TC: high lipid control 3.32 ± 0.49. As to the method:
Observe the effects of different doses of FTZEC on the serum TC, TG, LDL-C, and HDL-C of hyperlipemia rats.
In addition to ordinary feed in control group, other groups were given high fat emulsion in 10 ml/kg every morning by gavage beside the ordinary feed, and given corresponding drugs 4 hours after feeding, in which the normal group and the model groups were given equal amount of normal saline, administrated for continuous 8 weeks. These animals were fasted for 1 d, when water was given, in the next morning, the blood was taken from orbital veniplex after the last administration, centrifuged and separated the serum to test the TC, TG, HDL-C, LDL-C respectively.

pIC50: −log10 of the molar value.

The pIC50 is −log10 of the IC50, conventionally taken in molar units. A high value points to a small IC50.

In assay [1], `CC[C@H](C)C(=O)O[C@H]1C[C@H](O)C=C2C=C[C@H](C)[C@H](CC[C@@H](O)C[C@@H](O)CC(=O)O)[C@H]21` [Pravastatin] had a negative-log IC50 (pIC50) of 5.36. Besides, in assay [2], the HDL-C was determined as 1.36 ± 0.28 mmol/L, the TG came out at 2.08 ± 0.82 mmol/L, the LDL-C is on record as 10.29 ± 2.27 mmol/L and the TC amounted to 12.69 ± 3.62 mmol/L. Moreover, in assay [2], the Ox-LDL came out at 1.29 ± 0.27 mmol/L. Also, in assay [3], the “Effective Cases” value is listed as 15, the “Effective Rate %” value was determined as 50.0%, the “Invalid Cases” value stood at 4 and the “Invalid Rate %” value came out at 13.3%. For the same molecule, in assay [3], the “Marked effective Cases” value was 11, the “Marked effective Rate %” value is given as 36.7% and the “Total effective rate %” value is 86.7%.
The molecule `CC(C)OC(=O)C(C)(C)Oc1ccc(C(=O)c2ccc(Cl)cc2)cc1` [Fenofibrate] had an LPL activity in assay [4] of 16.95 ± 3.02 g FFA/mL supernatant · h. In assay [5], this molecule gave an HDL-C of 1.22 ± 0.43 mmol/L, an LDL-C of 0.89 ± 0.42 mmol/L and a TC of 2.85 ± 0.45 mmol/L. For the same molecule, in assay [2], the HDL-C stood at 1.06 ± 0.26 mmol/L, the TG was 1.88 ± 0.82 mmol/L, the LDL-C was found to be 4.99 ± 2.25 mmol/L and the TC is reported as 19.89 ± 2.62 mmol/L. In assay [2], this molecule displayed an Ox-LDL of 0.99 ± 0.25 mmol/L.
On to `CC[C@H](C)C(=O)O[C@H]1C[C@@H](C)C=C2C=C[C@H](C)[C@H](CC[C@@H]3C[C@@H](O)CC(=O)O3)[C@H]21` [Lovastatin], for which, in assay [5], the HDL-C amounted to 0.96 ± 0.26 mmol/L, the LDL-C is recorded as 0.91 ± 0.25 mmol/L and the TC was determined as 2.29 ± 0.32 mmol/L. The same molecule had a TG in assay [5] (high lipid control 3.28 ± 0.79) of 2.08 ± 0.82 mmol/L.

The values above are taken from patent US8394431B2, “Composition of extracts from plants and the use thereof in prophylaxis or treatment of metabolism disorder of blood lipid” (priority 2008, dated 2013).
